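How tested: cells in 96-well plates exposed to compound for 48 hours at five concentrations. GI50 is the concentration that inhibits growth by half. The concentration for full growth arrest is given as TGI.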
Experiments:
Assay in all cases: inhibition of tumour cell growth, NCI panel, 48 h
786-0 renal = test system: 786-0 renal
A498 renal = test system: A498 renal
A549 NSCLC = test system: A549 NSCLC
ACHN renal = test system: ACHN renal
BT-549 breast = test system: BT-549 breast
CAKI-1 renal = test system: CAKI-1 renal
CCRF-CEM leukemia = test system: CCRF-CEM leukemia
COLO 205 colon = test system: COLO 205 colon
DU-145 prostate = test system: DU-145 prostate
EKVX NSCLC = test system: EKVX NSCLC
HCC-2998 colon = test system: HCC-2998 colon
HCT-116 colon = test system: HCT-116 colon
HCT-15 colon = test system: HCT-15 colon
HL-60(TB) leukemia = test system: HL-60(TB) leukemia
HOP-62 NSCLC = test system: HOP-62 NSCLC
HOP-92 NSCLC = test system: HOP-92 NSCLC
HS 578T breast = test system: HS 578T breast
HT29 colon = test system: HT29 colon
IGROV1 ovarian = test system: IGROV1 ovarian
K-562 leukemia = test system: K-562 leukemia
KM12 colon = test system: KM12 colon
LOX IMVI melanoma = test system: LOX IMVI melanoma
M14 melanoma = test system: M14 melanoma
MALME-3M melanoma = test system: MALME-3M melanoma
MCF7 breast = test system: MCF7 breast
MDA-MB-231 breast = test system: MDA-MB-231 breast
MDA-MB-435 = test system: MDA-MB-435
MDA-MB-468 breast = test system: MDA-MB-468 breast
MOLT-4 leukemia = test system: MOLT-4 leukemia
NCI-H226 lung = test system: NCI-H226 lung
NCI-H23 lung = test system: NCI-H23 lung
NCI-H460 lung = test system: NCI-H460 lung
NCI-H522 lung = test system: NCI-H522 lung
NCI/ADR-RES ovarian = test system: NCI/ADR-RES ovarian
OVCAR-3 ovarian = test system: OVCAR-3 ovarian
OVCAR-4 ovarian = test system: OVCAR-4 ovarian
OVCAR-5 ovarian = test system: OVCAR-5 ovarian
OVCAR-8 ovarian = test system: OVCAR-8 ovarian
PC-3 prostate = test system: PC-3 prostate
RPMI-8226 leukemia = test system: RPMI-8226 leukemia
RXF 393 renal = test system: RXF 393 renal
SF-268 CNS = test system: SF-268 CNS
SF-295 CNS = test system: SF-295 CNS
SF-539 CNS = test system: SF-539 CNS
SK-MEL-2 melanoma = test system: SK-MEL-2 melanoma
SK-MEL-28 melanoma = test system: SK-MEL-28 melanoma
SK-MEL-5 melanoma = test system: SK-MEL-5 melanoma
SK-OV-3 ovarian = test system: SK-OV-3 ovarian
SN12C renal = test system: SN12C renal
SNB-19 CNS = test system: SNB-19 CNS
SNB-75 CNS = test system: SNB-75 CNS
SR leukemia = test system: SR leukemia
SW-620 colon = test system: SW-620 colon
T-47D breast = test system: T-47D breast
TK-10 renal = test system: TK-10 renal
U251 CNS = test system: U251 CNS
UACC-257 melanoma = test system: UACC-257 melanoma
UACC-62 melanoma = test system: UACC-62 melanoma
UO-31 renal = test system: UO-31 renal

`N#Cc1c(NC(=O)c2ccc(C(F)(F)F)c(Cl)c2)sc2c1CCC(=O)C2` was tested, and the GI50 (786-0 renal) was 1850 nM, the TGI (786-0 renal) was 5530 nM and the GI50 (A498 renal) was 12600 nM. For the same molecule, the TGI (A498 renal) was 34900 nM, the GI50 (A549 NSCLC) was 2440 nM and the TGI (A549 NSCLC) was 7660 nM. It also gave a GI50 (ACHN renal) of 692 nM, a TGI (ACHN renal) of 1860 nM and a GI50 (BT-549 breast) of 365 nM. It also gave a TGI (BT-549 breast) of 1410 nM, a GI50 (CAKI-1 renal) of 725 nM and a TGI (CAKI-1 renal) of 2120 nM. The GI50 (CCRF-CEM leukemia) was 334 nM, the TGI (CCRF-CEM leukemia) was 3530 nM and the GI50 (COLO 205 colon) was 1170 nM. It also gave a TGI (COLO 205 colon) of 2610 nM, a GI50 (DU-145 prostate) of 3930 nM and a TGI (DU-145 prostate) of 18300 nM. It also gave a GI50 (EKVX NSCLC) of 1900 nM, a TGI (EKVX NSCLC) of 4920 nM and a GI50 (HCC-2998 colon) of 1670 nM. The TGI (HCC-2998 colon) was 3350 nM, the GI50 (HCT-116 colon) was 371 nM and the TGI (HCT-116 colon) was 1430 nM. It also gave a GI50 (HCT-15 colon) of 963 nM, a TGI (HCT-15 colon) of 2860 nM and a GI50 (HL-60(TB) leukemia) of 1160 nM. It also gave a TGI (HL-60(TB) leukemia) of 5390 nM, a GI50 (HOP-62 NSCLC) of 2160 nM and a TGI (HOP-62 NSCLC) of 6050 nM. For the same molecule, the GI50 (HOP-92 NSCLC) was 1190 nM, the TGI (HOP-92 NSCLC) was 3240 nM and the GI50 (HS 578T breast) was 891 nM. The TGI (HS 578T breast) was 3490 nM, the GI50 (HT29 colon) was 943 nM and the TGI (HT29 colon) was 3530 nM. The GI50 (IGROV1 ovarian) was 1520 nM, the TGI (IGROV1 ovarian) was 3070 nM and the GI50 (K-562 leukemia) was 336 nM. For the same molecule, the TGI (K-562 leukemia) was 5220 nM, the GI50 (KM12 colon) was 1140 nM and the TGI (KM12 colon) was 3530 nM. The GI50 (LOX IMVI melanoma) was 561 nM, the TGI (LOX IMVI melanoma) was 2040 nM and the GI50 (M14 melanoma) was 922 nM. The TGI (M14 melanoma) was 2690 nM, the GI50 (MALME-3M melanoma) was 1260 nM and the TGI (MALME-3M melanoma) was 3150 nM. The GI50 (MCF7 breast) was 1470 nM, the TGI (MCF7 breast) was 7500 nM and the GI50 (MDA-MB-231 breast) was 1460 nM. The TGI (MDA-MB-231 breast) was 3000 nM, the GI50 (MDA-MB-435) was 1600 nM and the TGI (MDA-MB-435) was 3080 nM. It also gave a GI50 (MDA-MB-468 breast) of 416 nM, a TGI (MDA-MB-468 breast) of 1490 nM and a GI50 (MOLT-4 leukemia) of 568 nM. For the same molecule, the TGI (MOLT-4 leukemia) was 6260 nM, the GI50 (NCI-H226 lung) was 2590 nM and the TGI (NCI-H226 lung) was 8600 nM. The GI50 (NCI-H23 lung) was 1030 nM, the TGI (NCI-H23 lung) was 3010 nM and the GI50 (NCI-H460 lung) was 2720 nM. For the same molecule, the TGI (NCI-H460 lung) was 8900 nM, the GI50 (NCI-H522 lung) was 346 nM and the TGI (NCI-H522 lung) was 1350 nM. It also gave a GI50 (NCI/ADR-RES ovarian) of 1600 nM, a TGI (NCI/ADR-RES ovarian) of 4190 nM and a GI50 (OVCAR-3 ovarian) of 1430 nM. It also gave a TGI (OVCAR-3 ovarian) of 2990 nM, a GI50 (OVCAR-4 ovarian) of 1320 nM and a TGI (OVCAR-4 ovarian) of 2860 nM. For the same molecule, the GI50 (OVCAR-5 ovarian) was 1830 nM, the TGI (OVCAR-5 ovarian) was 3870 nM and the GI50 (OVCAR-8 ovarian) was 1380 nM. It also gave a TGI (OVCAR-8 ovarian) of 3480 nM, a GI50 (PC-3 prostate) of 448 nM and a TGI (PC-3 prostate) of 3230 nM. It also gave a GI50 (RPMI-8226 leukemia) of 214 nM, a TGI (RPMI-8226 leukemia) of 736 nM and a GI50 (RXF 393 renal) of 618 nM. For the same molecule, the TGI (RXF 393 renal) was 1950 nM, the GI50 (SF-268 CNS) was 1780 nM and the TGI (SF-268 CNS) was 5370 nM. For the same molecule, the GI50 (SF-295 CNS) was 1630 nM, the TGI (SF-295 CNS) was 3410 nM and the GI50 (SF-539 CNS) was 514 nM. It also gave a TGI (SF-539 CNS) of 1650 nM, a GI50 (SK-MEL-2 melanoma) of 1940 nM and a TGI (SK-MEL-2 melanoma) of 4380 nM. It also gave a GI50 (SK-MEL-28 melanoma) of 1080 nM, a TGI (SK-MEL-28 melanoma) of 2570 nM and a GI50 (SK-MEL-5 melanoma) of 1580 nM. For the same molecule, the TGI (SK-MEL-5 melanoma) was 2970 nM, the GI50 (SK-OV-3 ovarian) was 2120 nM and the TGI (SK-OV-3 ovarian) was 5920 nM. For the same molecule, the GI50 (SN12C renal) was 923 nM, the TGI (SN12C renal) was 2740 nM and the GI50 (SNB-19 CNS) was 1670 nM. For the same molecule, the TGI (SNB-19 CNS) was 4350 nM, the GI50 (SNB-75 CNS) was 1350 nM and the TGI (SNB-75 CNS) was 3380 nM. For the same molecule, the GI50 (SR leukemia) was 399 nM, the TGI (SR leukemia) was 10300 nM and the GI50 (SW-620 colon) was 400 nM. The TGI (SW-620 colon) was 1790 nM, the GI50 (T-47D breast) was 599 nM and the TGI (T-47D breast) was 2960 nM. It also gave a GI50 (TK-10 renal) of 2280 nM, a TGI (TK-10 renal) of 7430 nM and a GI50 (U251 CNS) of 760 nM. It also gave a TGI (U251 CNS) of 2070 nM, a GI50 (UACC-257 melanoma) of 1700 nM and a TGI (UACC-257 melanoma) of 4350 nM. For the same molecule, the GI50 (UACC-62 melanoma) was 1230 nM, the TGI (UACC-62 melanoma) was 2660 nM and the GI50 (UO-31 renal) was 479 nM. It also gave a TGI (UO-31 renal) of 1710 nM.

Source: PubChem BioAssay (NCI)
